According to patent US20140018242A1, “METHOD OF CROP ENHANCEMENT” (SYNGENTA PARTICIPATIONS AG, priority 2010, published 2014):

Legend:
Soybeans (Glycine max) = assay: Seed application on soybeans in pouch, plant growth effects (shoot length, root system); type: in vivo; details: 14 days, additional growth vs blank formulation check
Description: The formulated test compounds were added to a defined amount of water. This solution was applied into a pouch which was previously equipped with a filter paper. After the application soybean seeds were sown into the upper fault of the filter paper. The prepared pouches were then incubated for 14 days at 25° C. and a relative humidity of 65% with a photo period of 16 h. The evaluation was made by assessing the shoot length and the root system. Data represent the average of 10 replicates (1seed/plant per pouch).

[1] = system: French beans (Phaseolus vulgaris); assay: Soil application to French beans, effects on flowering (BBCH) and plant physiology (NDVI, NIR); type: in vivo; set-up: NIR (Near infrared band reflectance): unit not given here; details: 0.01 mg AI per plant drench, mean of 4 reps; for BBCH (plant growth stage): 15DAA, check 57; for NDVI (Normalized difference vegetative index) / NIR (Near infrared band reflectance): 25DAA; for NDVI (Normalized difference vegetative index): check 0.431; for NIR (Near infrared band reflectance): check 4.32
Description: Four two week old French bean plants were treated with 0.01 mg Al per plant as soil application (drench). Plants were kept under glasshouse conditions at 22° C. with a photo-period of 14 h. 15DAA the development stage of blossoms was assessed. 25DAA the photosynthetic capacity of plants (NDVI, NIR) was measured.

Structure (SMILES) | melting point | Mean shoot height increase (%) (Soybeans (Glycine max); AI concentration 5 ppm) | Mean shoot height increase in cm (Soybeans (Glycine max); AI concentration 5 ppm) [cm] | further results
CCOC(=O)OC1=C(c2cc(C)ccc2C)C(=O)N(C)C12CCN(OC)CC2 [Compound P1.1] | 96 to 110 °C | – | – | –
CCOC(=O)OC1=C(c2c(C)cc(C)cc2C)C(=O)N(C)C12CCN(OC)CC2 [Compound P1.2, Carbonic acid ethyl ester 8-methoxy-1-methyl-2-oxo-3-(2,4,6-trimethyl-phenyl)-1,8-diaza-spiro[4.5]dec-3-en-4-yl ester] | – | 8.5 | 1.7 | –
CCOC(=O)OC1=C(c2c(C)cc(C)cc2C)C(=O)N(CC)C12CCN(OC)CC2 [Compound P1.8] | 101 to 103 °C | – | – | –
CCOC(=O)OC1=C(c2c(C)cc(Br)cc2C)C(=O)N(C)C12CCN(OC)CC2 [Compound P1.12] | – | 16.0 | 3.8 | –
CCOC(=O)OC1=C(c2cc(C)c(C)cc2Br)C(=O)N(C)C12CCN(OC)CC2 [Compound P1.20] | 158 to 159 °C | – | – | –
CCOC(=O)OC1=C(c2c(C)ccc(C)c2C)C(=O)N(C)C12CCN(OC)CC2 [Compound P1.21] | – | 24.5 | 5.8 | –
CCOC(=O)OC1=C(c2cc(C)c(C)cc2Cl)C(=O)N(C)C12CCN(OC)CC2 [Compound P1.22] | 149 to 150 °C | – | – | –
COCON1C(=O)C(c2cc(C)ccc2C)=C(OC(=O)CC(C)(C)C)C12CCN(OC)CC2 [Compound P1ii.5] | 93 to 95 °C | – | – | –
CCOC(=O)OC1=C(c2c(C)cc(C)cc2C)C(=O)N(OCC)C12CCN(OC)CC2 [Compound P1ii.15] | – | 38.9 | 3.8 | –
COCON1C(=O)C(c2cc(C)ccc2C)=C(OC)C12CCN(OC)CC2 [Compound P1ii.31] | 91 to 93 °C | – | – | –
CCOC(=O)OC1=C(c2cc(C)c(C)cc2C)C(=O)N(OCOC)C12CCN(OC)CC2 [Compound P1ii.56] | – | 7.2 | 1.7 | –
CCOC(=O)OC1=C(c2cc(C)c(C)cc2C)C(=O)N(OC)C12CCN(OC)CC2 [Compound P1ii.57] | – | 10.2 | 2.4 | –
CCOC(=O)OC1=C(c2c(F)ccc(C)c2Cl)C(=O)N(OCOC)C12CCN(OC)CC2 [Compound P1ii.61] | 116 to 119 °C | – | – | –
CCOC(=O)OC1=C(c2c(C)cc(Cl)cc2C)C(=O)N(OC)C12CCN(OC)CC2 [Compound P1ii.114] | 122 to 125 °C | – | – | –
CON1CCC2(CC1)C(O)=C(c1cc(C)ccc1C)C(=O)N2C [Compound P2.1] | 121 to 123 °C | – | – | –
CON1CCC2(CC1)C(O)=C(c1c(C)cc(C)cc1C)C(=O)N2C [Compound P2.2, 4-hydroxy-8-methoxy-1-methyl-3-(2,4,6-trimethyl-phenyl)-1,8-diaza-spiro[4.5]dec-3-en-2-one] | – | – | – | Mean shoot height increase (%) (Soybeans (Glycine max); AI concentration 4 ppm): 7.2%; Mean shoot height increase in cm (Soybeans (Glycine max); AI concentration 4 ppm): 1.4 cm
CON1CCC2(CC1)C(O)=C(c1c(C)cc(C)cc1C)C(=O)N2CC1CC1 [Compound P2.8, 1-Cyclopropylmethyl-4-hydroxy-8-methoxy-3-(2,4,6-trimethyl-phenyl)-1,8-diaza-spiro[4.5]dec-3-en-2-one] | 223 to 225 °C | – | – | –
CCN1C(=O)C(c2c(C)cc(C)cc2C)=C(O)C12CCN(OC)CC2 [Compound P2.11] | 218 to 221 °C | – | – | –
CON1CCC2(CC1)C(O)=C(c1cc(C)c(C)cc1Br)C(=O)N2C [Compound P2.23] | 191 to 193 °C | – | – | –
CON1CCC2(CC1)C(O)=C(c1cc(C)c(C)cc1C)C(=O)N2C [Compound P2.25] | 183 to 186 °C | – | – | –
CON1CCC2(CC1)C(O)=C(c1cc(C)c(C)cc1Cl)C(=O)N2C [Compound P2.26, 3-(2-Chloro-4,5-dimethyl-phenyl)-4-hydroxy-8-methoxy-1-methyl-1,8-diaza-spiro[4.5]dec-3-en-2-one] | 191 to 192 °C | – | – | –
CON1CCC2(CC1)C(O)=C(c1cc(Br)c(C)cc1C)C(=O)N2C [Compound P2.28] | 182 to 183 °C | – | – | –
COCON1C(=O)C(c2c(C)cc(-c3ccc(Cl)cc3)cc2C)=C(O)C12CCN(OC)CC2 [Compound P2ii.15, 3-(4′-Chloro-3,5-dimethyl-biphenyl-4-yl)-4-hydroxy-8-methoxy-1-methoxymethoxy-1,8-diaza-spiro[4.5]dec-3-en-2-one] | 128 °C (dec.) | – | – | –
CON1CCC2(CC1)C(O)=C(c1c(C)cc(C)cc1C)C(=O)N2OCCOC1CCCCO1 (centres unmarked) [Compound P2ii.22] | 135 to 137 °C | – | – | –
COCON1C(=O)C(c2c(F)ccc(C)c2Cl)=C(O)C12CCN(OC)CC2 [Compound P2ii.60] | 155 to 158 °C | – | – | –

Structure (SMILES) | melting point | Mean shoot height increase (%) (Soybeans (Glycine max); AI concentration 5 ppm) | Mean shoot height increase in cm (Soybeans (Glycine max); AI concentration 5 ppm) [cm] | further results
COCCON1C(=O)C(c2cc(Br)c(C)cc2C)=C(O)C12CCN(OC)CC2 [Compound P2ii.73] | 63 to 64 °C | – | – | –
CON1CCC2(CC1)C(O)=C(c1cc(Br)c(C)cc1C)C(=O)N2OC [Compound P2ii.75] | 86 to 87 °C | – | – | –
COCCON1C(=O)C(c2cc(Br)c(F)cc2C)=C(O)C12CCN(OC)CC2 [Compound P2ii.87] | 71 to 74 °C | – | – | –
COCON1C(=O)C(c2cc(Br)c(F)cc2C)=C(O)C12CCN(OC)CC2 [Compound P2ii.89] | 64 to 67 °C | – | – | –
CON1CCC2(CC1)C(O)=C(c1c(C)cc(C)cc1C)C(=O)N2OCC1CCCCC1 [Compound P2ii.96] | 169 to 172 °C | – | – | –
COCCON1C(=O)C(c2c(C)cc(Cl)cc2C)=C(O)C12CCN(OC)CC2 [Compound P2ii.101] | 161 to 164 °C | – | – | –
CON1CCC2(CC1)C(O)=C(c1c(C)cc(Cl)cc1C)C(=O)N2OC [Compound P2ii.102] | 88 to 92 °C | – | – | –
COCON1C(=O)C(c2c(C)cc(Cl)cc2C)=C(O)C12CCN(OC)CC2 [Compound P2ii.104] | 176 to 178 °C | – | – | –
CON1CCC2(CC1)C(O)=C(c1c(C)cc(Cl)cc1C)C(=O)N2OC1CCCO1 (centres unmarked) [Compound P2ii.105] | 137 to 139 °C | – | – | –
CON1CCC2(CC1)C(O)=C(c1c(C)cc(C)cc1C)C(=O)N2C [Compound T1.070] | – | – | – | BBCH (plant growth stage) [1]: 59; NDVI (Normalized difference vegetative index) [1]: 0.418; NIR (Near infrared band reflectance) [1]: 3.81
CON1CCC2(CC1)NC(=O)C(c1cc(C)ccc1C)=C2O [Compound T1iii.030] | – | – | – | BBCH (plant growth stage) [1]: 58; NDVI (Normalized difference vegetative index) [1]: 0.486; NIR (Near infrared band reflectance) [1]: 4.98
CON1CCC2(CC1)NC(=O)C(c1c(C)cc(C)cc1C)=C2O [Compound T1iii.70] | – | – | – | BBCH (plant growth stage) [1]: 58; NDVI (Normalized difference vegetative index) [1]: 0.443; NIR (Near infrared band reflectance) [1]: 4.92
COCON1C(=O)C(c2cc(C)ccc2C)=C(O)C12CCN(OC)CC2 [Compound T20ii.030] | – | – | – | BBCH (plant growth stage) [1]: 58; NDVI (Normalized difference vegetative index) [1]: 0.427; NIR (Near infrared band reflectance) [1]: 4.07
COCON1C(=O)C(c2c(C)cc(C)cc2C)=C(O)C12CCN(OC)CC2 [Compound T20ii.070] | – | – | – | BBCH (plant growth stage) [1]: 58; NDVI (Normalized difference vegetative index) [1]: 0.518; NIR (Near infrared band reflectance) [1]: 4.59
COCCON1C(=O)C(c2c(C)cc(C)cc2C)=C(O)C12CCN(OC)CC2 [Compound T22ii.070] | – | – | – | BBCH (plant growth stage) [1]: 59; NDVI (Normalized difference vegetative index) [1]: 0.471; NIR (Near infrared band reflectance) [1]: 4.18
C=CCOC(=O)OC1=C(c2c(C)cc(C)cc2C)C(=O)N(C)C12CCN(OC)CC2 [T1.070, wherein G is COOCH2CH═CH2] | – | 10.2 | 2.1 | –
CCOC(=O)OC1=C(c2c(C)cc(Br)cc2CC)C(=O)N(C)C12CCN(OC)CC2 [T1.078, wherein G is COOCH2CH3] | – | 8.1 | 1.7 | –
CCOC(=O)OC1=C(c2c(C)cc(Cl)cc2OC)C(=O)N(C)C12CCN(OC)CC2 [T1.096, wherein G is COOCH2CH3] | – | 6.6 | 1.4 | –
CCOC(=O)OC1=C(c2c(C)cc(Cl)cc2C)C(=O)NC12CCN(OC)CC2 [T1iii.067, wherein G is COOCH2CH3] | – | 15.5 | 3.9 | –
CCOC(=O)OC1=C(c2c(C)cc(C)cc2CC)C(=O)NC12CCN(OC)CC2 [T1iii.071, wherein G is COOCH2CH3] | – | 8.6 | 1.8 | –
CCOC(=O)OC1=C(c2c(C)cc(C)cc2OC)C(=O)NC12CCN(OC)CC2 [T1iii.072, wherein G is COOCH2CH3] | – | 8.9 | 2.1 | –
CCOC(=O)OC1=C(c2c(C)cc(Cl)cc2OC)C(=O)NC12CCN(OC)CC2 [T1iii.096, wherein G is COOCH2CH3] | – | 18.4 | 3.8 | –
CCOC(=O)OC1=C(c2c(C)cc(C)cc2OC)C(=O)N(OCC)C12CCN(OC)CC2 [T3ii.072, wherein G is COOCH2CH3] | – | 10.6 | 2.2 | –
CCOC(=O)OC1=C(c2cc(C)ccc2C)C(=O)N(OCOC)C12CCN(OC)CC2 [T20ii.030, wherein G is CO2Et] | – | – | – | BBCH (plant growth stage) [1]: 59; NDVI (Normalized difference vegetative index) [1]: 0.522; NIR (Near infrared band reflectance) [1]: 4.45
CCOC(=O)OC1=C(c2c(C)cc(Br)cc2CC)C(=O)N(OC2CCCO2)C12CCN(OC)CC2 (centres unmarked) [T25N.078, wherein G is COOCH2CH3] | – | 14.5 | 3.0 | –
